In the supplement of paper PMC9663587:

Legend:
Assay in all cases: area over the GR curve, 72 h; higher = more effect;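 note: Dye Drop or Deep Dye Drop imaging of viable cells in 384-well plates (Hoechst nuclei, LIVE/DEAD dye), nine half-log doses, GR normalized to DMSO controls and time-zero plates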
AU565 = tested on: AU565
CAL120 = tested on: CAL120
CAL51 = tested on: CAL51
MCF12A = tested on: MCF12A
MDAMB175VII = tested on: MDAMB175VII
MGH312 = tested on: MGH312
PDX1258 = tested on: PDX1258
PDXHCI002 = tested on: PDXHCI002
SKBR3 = tested on: SKBR3
SUM1315 = tested on: SUM1315
SUM149 = tested on: SUM149
SUM44PE = tested on: SUM44PE
ZR7530 = tested on: ZR7530

Row | SMILES | area over the GR curve (AU565) [GR] | area over the GR curve (CAL120) [GR] | area over the GR curve (CAL51) [GR] | area over the GR curve (MCF12A) [GR] | area over the GR curve (MDAMB175VII) [GR] | area over the GR curve (MGH312) [GR] | area over the GR curve (PDX1258) [GR] | area over the GR curve (PDXHCI002) [GR] | area over the GR curve (SKBR3) [GR] | area over the GR curve (SUM1315) [GR] | area over the GR curve (SUM149) [GR] | area over the GR curve (SUM44PE) [GR] | area over the GR curve (ZR7530) [GR]
1 | CNCc1ccc(-c2[nH]c3cc(F)cc4c3c2CCNC4=O)cc1 [Rucaparib] (max 10 µM) | 0.0692 | 0.125 | 0.0888 | 0.0783 | 0.136 | 0.189 | 0.204 | 0.0896 | 0.119 | 0.371 | 0.2 | 0.0038 | 0.25
2 | CC(C)NC[C@@H](C(=O)N1CCN(c2ncnc3c2[C@H](C)C[C@H]3O)CC1)c1ccc(Cl)cc1 [Ipatasertib/GDC0068] (max 10 µM) | 0.147 | 0.13 | 0.224 | 0.0679 | 0.456 | 0.933 | 0.15 | -0.114 | 0.152 | 0.124 | 0.124 | 0.412 | 0.124
3 | Nc1ccc(-c2ccc3ncc4ccc(=O)n(-c5cccc(C(F)(F)F)c5)c4c3c2)cn1 [Torin2] (max 1 µM) | 0.657 | 0.487 | 0.456 | 0.327 | 1.04 | 0.816 | 0.362 | 0.0743 | 0.734 | 0.486 | 0.255 | 0.737 | 0.346
4 | NC1(C(=O)N[C@@H](CCO)c2ccc(Cl)cc2)CCN(c2nc[nH]c3nccc2-3)CC1 [AZD5363] (max 10 µM) | 0.205 | 0.0399 | 0.161 | 0.142 | 0.622 | 1.44 | 0.153 | -0.085 | 0.23 | 0.144 | 0.109 | 0.596 | 0.393
5 | CN(C)C/C=C/C(=O)Nc1ccc(C(=O)Nc2cccc(Nc3cc(-c4c[nH]c5ccccc45)ncn3)c2)cc1 [THZ-P1-2] (max 10 µM) | 0.194 | 0.124 | 0.0155 | 0.0465 | 0.458 | 0.127 | 0.572 | 0.153 | 0.154 | 0.0029 | 0.117 | 0.619 | 0.474
6 | O=C1NC(=O)[C@@H](c2cn3c4c(cccc24)CCC3)[C@@H]1c1c[nH]c2ccccc12 [Tivantinib/ARQ197] (max 10 µM) | 0.577 | 0.465 | 0.359 | 0.374 | 0.531 | 0.396 | 0.373 | 0.528 | 0.479 | 0.475 | 0.446 | 0.762 | 0.457
7 | CN1CC[C@H](c2c(O)cc(O)c3c(=O)cc(-c4ccccc4Cl)oc23)[C@H](O)C1 [Flavopiridol] (max 1 µM) | 0.368 | 0.229 | 0.242 | 0.167 | 0.413 | 0.452 | 0.341 | 0.278 | 0.342 | 0.416 | 0.255 | 0.406 | 0.236
8 | CN(C)C/C=C/C(=O)Nc1ccc(C(=O)Nc2cccc(Nc3ncc(Cl)c(-c4c[nH]c5ccccc45)n3)c2)cc1 [THZ1] (max 1 µM) | 0.607 | 0.337 | 0.161 | 0.256 | 0.487 | 0.97 | 0.633 | 0.527 | 0.673 | 0.229 | 0.425 | 0.706 | 0.561
9 | CNc1nc(-c2ccc3c(N)n[nH]c3c2)cc(N2C[C@@H](C(=O)NC3CCCCC3)CC[C@H]2C)n1 (max 10 µM) | 0.223 | 0.0896 | 0.0516 | 0.0618 | 0.59 | 0.718 | 0.011 | -0.0573 | 0.318 | 0.291 | 0.0419 | 0.165 | 0.408
10 | CCC(=O)Nc1ccc(C(=O)Nc2ccc(Nc3ncc4c(n3)N(C)c3ccc(C)cc3C(=O)N4C)cc2)cc1 [FMF-03-145-1] | 0.501 | 0.34 | 0.394 | 0.345 | 0.919 | 1.28 | 1.12 | 0.915 | 0.464 | 0.539 | 0.462 | 1.15 | 0.918
11 | CC(C)n1nc(-c2ccc3oc(N)nc3c2)c2c(N)ncnc21 [INK128/MLN0128] (max 3.162 µM) | 0.791 | 0.602 | 0.553 | 0.495 | 1.17 | 1.22 | 0.449 | 0.122 | 0.971 | 0.647 | 0.318 | 0.781 | 0.533
12 | O=C1NC(=NCc2cccs2)SC1=Cc1ccc2ncccc2c1 [R0-3306] (max 10 µM) | 0.406 | 0.0133 | 0.067 | 0.041 | 0.239 | 0.0994 | 0.0971 | 0.0778 | 0.163 | 0.195 | 0.106 | 0.276 | 0.113
13 | COc1cc2c(Oc3ccc4[nH]c(C)cc4c3F)ncnc2cc1OCCCN1CCCC1 [Cediranib/AZD2171] (max 10 µM) | -0.0924 | 0.299 | 0.171 | -0.0002 | 0.193 | -0.0345 | 0.0493 | 0.255 | 0.063 | 0.243 | 0.0456 | -0.0271 | 0.0237
14 | CN(C)CC[C@H](CSc1ccccc1)Nc1ccc(S(=O)(=O)NC(=O)c2ccc(N3CCN(Cc4ccccc4-c4ccc(Cl)cc4)CC3)cc2)cc1[N+](=O)[O-] [ABT-737] (max 10 µM) | 0.0543 | 0.2 | 0.0125 | 0.0052 | 0.0499 | 0.224 | -0.0015 | 0.0548 | -0.0209 | 0.0822 | 0.142 | -0.0051 | -0.0351
15 | COc1cc(N2CCN(C)CC2)ccc1Nc1ncc2c(n1)N(C)c1ccccc1C(=O)N2CC(F)(F)F [FMF-03-146-1] | 0.0771 | -0.0113 | 0.0396 | 0.0258 | 0.0733 | 0.025 | -0.0674 | -0.0147 | 0.0465 | 0.0401 | -0.0043 | 0.016 | 0.0601
16 | CCc1cncnc1N1CCN(Cc2nc3ccc(C(F)(F)F)cc3[nH]2)CC1 (max 10 µM) | 0.0402 | 0.0139 | 0.0491 | -0.0039 | 0.314 | -0.0701 | -0.0033 | -0.045 | 0.0204 | 0.0975 | 0.0207 | 0.0041 | 0.0942
17 | CO[C@H]1C[C@@H]2CC[C@@H](C)[C@@](O)(O2)C(=O)C(=O)N2CCCC[C@H]2C(=O)O[C@H]([C@H](C)C[C@@H]2CC[C@@H](OCCO)[C@H](OC)C2)CC(=O)[C@H](C)/C=C(\C)[C@@H](O)[C@@H](OC)C(=O)[C@H](C)C[C@H](C)/C=C/C=C/C=C/1C [Everolimus] (max 10 µM) | 0.553 | 0.416 | 0.432 | 0.273 | 1.14 | 0.798 | 0.307 | -0.0896 | 0.794 | 0.454 | 0.201 | 0.734 | 0.598
18 | CN1CCN(C(=O)c2ccc3cc(CCNc4ncnc5ccc(C#N)cc45)ccc3c2)CC1 [senexin b] (max 10 µM) | 0.111 | 0.131 | 0.119 | 0.11 | 0.427 | 0.418 | 0.125 | -0.125 | 0.172 | 0.175 | 0.129 | 0.369 | 0.274
19 | C[C@@H]1COCCN1c1cc(C2([S@](C)(=N)=O)CC2)nc(-c2cc[nH]c3nccc2-3)n1 [AZD6738] (max 10 µM) | 0.0383 | -0.169 | 0.103 | 0.192 | 0.063 | -0.22 | 0.0598 | 0.0278 | 0.335 | 0.0543 | 0.117 | 0.365 | -0.0333
20 | COc1ccc2c(c1)[C@]1(C[C@H]1c1ccc3c(/C=C/c4ccc(CN5C[C@@H](C)O[C@@H](C)C5)cc4)n[nH]c3c1)C(=O)N2 | 0.725 | 0.518 | 0.562 | 0.499 | 0.589 | 1.19 | 0.676 | 0.489 | 0.711 | 0.83 | 0.672 | 0.898 | 0.509
21 | CC(=O)O[C@H]1C(=O)[C@@]2(C)[C@H]([C@H](OC(=O)c3ccccc3)[C@]3(O)C[C@H](OC(=O)[C@H](O)[C@@H](NC(=O)c4ccccc4)c4ccccc4)C(C)=C1C3(C)C)[C@]1(OC(C)=O)CO[C@@H]1C[C@@H]2O [Paclitaxel] (max 1 µM) | 0.994 | 0.746 | 0.669 | 0.586 | 0.837 | 0.973 | 0.68 | 0.921 | 0.89 | 0.793 | 0.839 | 0.953 | 0.868
22 | CCCCOc1c(C(=O)c2c(F)cc(C)cc2F)c[nH]c2nncc1-2 (max 10 µM) | 0.514 | 0.346 | 0.226 | 0.272 | 0.787 | 0.628 | 1.05 | 0.108 | 0.541 | 0.872 | 0.637 | 1.12 | 0.481
23 | Cc1nc(-c2cn3c(n2)-c2ccc(-c4cnn(C(C)(C)C(N)=O)c4)cc2OCC3)n(C(C)C)n1 [Taselisib/GDC0032] (max 10 µM) | 0.97 | 0.235 | 0.546 | 0.263 | 1.32 | 0.886 | 0.278 | 0.374 | 0.807 | 0.397 | 0.205 | 1.02 | 0.798
24 | Cc1nn(C)c(COc2ccc(N3CCN(S(=O)(=O)N(C)C)CC3)cc2)c1-c1cccc2c(CCCOc3cccc4ccccc34)c(C(=O)O)n(CCN3CCOCC3)c12 (max 10 µM) | -0.0201 | 0.0152 | 0.0073 | -0.0165 | 0.0271 | -0.123 | -0.0034 | -0.05 | 0.0389 | -0.0531 | 0.0361 | 0.14 | 0.0093
25 | C=CC(=O)Nc1ccc(C(=O)Nc2[nH]nc3c2CN(C(=O)N[C@H](CN(C)C)c2ccccc2)C3(C)C)cc1 [YKL-5-124] (max 10 µM) | 1 | 0.591 | 0.655 | 0.803 | 0.989 | 0.923 | 0.993 | 0.849 | 0.965 | 0.703 | 0.875 | 1.16 | 0.831
26 | Cc1cc(C(C)Nc2ccccc2)c2nc(N3CCOCC3)cc(=O)n2c1 (stereo unspecified) [TGX221] (max 10 µM) | 0.103 | -0.0168 | -0.0117 | -0.0153 | -0.0733 | 0.472 | -0.0475 | -0.0291 | -0.0125 | 0.136 | -0.0254 | -0.155 | -0.0239
27 | CC1(N)CCN(c2cnc(-c3cccc(Cl)c3Cl)c(N)n2)CC1 [SHP099] (max 10 µM) | 0.0263 | -0.0004 | 0.03 | 0.0144 | 0.238 | -0.0302 | -0.0325 | 0.0735 | 0.0253 | 0.121 | 0.001 | 0.075 | -0.0067
